Test system: Dermanyssus gallinae
Experiment: In vitro effect on Dermanyssus gallinae
Settings: single component; for activity in terms of preventing oviposition, component alone: at 0.32 and 10 ppm
Description: For the sake of simplicity, the chicken mite Dermanyssus gallinae is used. This is a good model for determining the effect on ticks.
In vitro Effect on Dermanyssus gallinae
The test is carried out with serial dilutions [avermectin component in concentrations of (32), 10, 3.2, 1.0, 0.32 to 0.0001 ppm; the 1-[4-chloro-3-(3-chlor-5-trifluoromethyl-2-pyridyloxy)phenyl]-3-(2,6-difluorobenzoyl)urea in concentrations of 100, 32, 10, 3.2, 1.0, 0.32 and 0.1 ppm]. For the test, the lowest concentration of one active substance is combined with the lowest concentration of the other active substance, and the limits of activity thus worked out. Ten fully engorged female mites of the genus Dermanyssus gallinae adhered to a plastic adhesive film are brought into contact with 50 μl of an aqueous suspension or emulsion of the test combination in question. After drying, the film is stuck onto a glass disc. This creates a kind of air bubble around each mite, the lower surface of which is formed by the glass disc and the upper surface by a bulging of the adhesive film. This bubble contains sufficient air for the mite to avoid suffocating. After 5 days, the effect of the test substance is evaluated with the aid of a stereomicroscope by assessing the effect on mortality, oviposition, egg quality, hatching rate, pupation rate, and development of protonymphs according to the following 4 criteria:
1) if 9 to 10 mites are dead, this indicates a lethal effect (characterised by M);
3) if 2 or more mites survive and produce eggs, but no larvae hatch from these eggs and no protonymphs develop, this indicates a development-inhibiting effect (H);
4)if 2 or more mites survive and lay the usual number of normal eggs, from which larvae hatch and develop into protonymphs, this indicates no activity (−).
In each test, two basic suspensions/emulsions (without active ingredient) and one suspension/emulsion with only one of each component are also tested in the corresponding concentrations.
The test is repeated three times with the following combinations and the results determined. The final result is given in Tables 1 to 3, whereby in the tables marked with a the combinations from the prior art are listed and in the tables marked with b the results of the combinations according to the invention are listed.

Compound | activity in terms of preventing oviposition, component alone | also measured
O=C(NC(=O)c1c(F)cccc1F)Nc1cc(Cl)c(Oc2ncc(C(F)(F)F)cc2Cl)c(Cl)c1 [A, chlorfluazuron] | – | activity against Dermanyssus gallinae, component alone (all tested concentrations): no activity at any concentration
O=C(NC(=O)c1c(F)cccc1F)Nc1ccc(Cl)c(Oc2ncc(C(F)(F)F)cc2Cl)c1 [B, 1-[4-chloro-3-(3-chloro-5-trifluoromethyl-2-pyridyloxy)phenyl]-3-(2,6-difluorobenzoyl)urea] | – | concentration up to which oviposition is prevented, component alone: 0.01 ppm
CO[C@H]1C[C@H](O[C@H]2[C@H](C)O[C@@H](O[C@@H]3/C(C)=C/C[C@@H]4C[C@@H](C[C@]5(C=C[C@H](C)[C@@H](C6CCCCC6)O5)O4)OC(=O)[C@@H]4C=C(C)[C@@H](O)[C@H]5OC/C(=C\C=C\[C@@H]3C)[C@]54O)C[C@@H]2OC)O[C@@H](C)[C@@H]1O [Doramectin] | full activity | –
CO/N=C1\C[C@]2(C[C@@H]3C[C@@H](C/C=C(\C)C[C@@H](C)/C=C/C=C4\CO[C@@H]5[C@H](O)C(C)=C[C@@H](C(=O)O3)[C@]45O)O2)O[C@H](/C(C)=C/C(C)C)[C@H]1C [Moxidectin] | full activity | –
Ivermectin | full activity | –
